# Reference: PubChem BioAssay (NCI)
# “And” between values parts separate entries of the source, which are not always exact repeats. Equal values may be shown once.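 Following 48 hours of exposure in 96-well plates, responses at five concentrations were used to interpolate endpoints linearly. At the GI50, growth is halved. At the TGI there is no net growth.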
# Assays:
# Assay in all cases: NCI tumour cell line growth inhibition, 48 h
# HCC-2998 colon = test system: HCC-2998 colon
# SF-539 CNS = test system: SF-539 CNS
# CAKI-1 renal = test system: CAKI-1 renal
# NCI/ADR-RES ovarian = test system: NCI/ADR-RES ovarian
# NCI-H522 lung = test system: NCI-H522 lung
# OVCAR-8 ovarian = test system: OVCAR-8 ovarian
# MCF7 breast = test system: MCF7 breast
# MDA-MB-231 breast = test system: MDA-MB-231 breast
# UACC-62 melanoma = test system: UACC-62 melanoma
# HL-60(TB) leukemia = test system: HL-60(TB) leukemia
SMILES,GI50 (HCC-2998 colon) [µM],TGI (HCC-2998 colon) [µM],GI50 (SF-539 CNS) [µM],TGI (SF-539 CNS),GI50 (CAKI-1 renal) [µM],TGI (CAKI-1 renal) [µM],GI50 (NCI/ADR-RES ovarian) [µM],TGI (NCI/ADR-RES ovarian) [µM],GI50 (NCI-H522 lung) [µM],TGI (NCI-H522 lung),GI50 (OVCAR-8 ovarian) [µM],TGI (OVCAR-8 ovarian) [µM],GI50 (MCF7 breast) [µM],TGI (MCF7 breast) [µM],GI50 (MDA-MB-231 breast) [µM],TGI (MDA-MB-231 breast) [µM],GI50 (UACC-62 melanoma) [µM],TGI (UACC-62 melanoma) [µM],GI50 (HL-60(TB) leukemia) [µM],TGI (HL-60(TB) leukemia) [µM]
Cc1nn(Cc2ccccc2)cc1C(=O)Nc1sc2c(c1C(N)=O)CCC(=O)C2,2.56,7.41,1.36,3.02 µM,1.42,2.92,3.36,10.1,1.25,5.25 µM,3.27,> 100,2.48,7.59,2,4.86,1.59,3.4,–,–
COc1cccc(N2CCN(c3ncnc4cc[nH]c34)CC2)c1,7.19,> 100,20.8,> 100 µM,5.75,> 100,2.87,40.4,8.78,64.1 µM,3.46,56.1,2.65,47.4,79.9,> 100,6.05,39.8,5.84,74
O=C(CSC(c1ccccc1)c1ccccc1)N/N=C/c1ccccc1Cl,6.9,> 75,29,> 90.2 µM,37.7,> 100,13.6,> 74.6,30.2,> 100 µM,17.9,> 79.4,11.2,> 52.8,1.46,11.5,14.7,> 63.5,–,8.46
COc1ccc(/C=C2\COc3ccc(O)c(O)c3C2=O)cc1OC,1.76,3.31,1.57,3.03 µM,1.22,2.98,1.7,17.4,0.199,0.473 µM,1.68,15.7,0.682,> 100,1.48,5.55,1.19,2.86,0.44,5.29
Cc1ccc(N=Nc2c(O)ccc3n[nH]nc23)cc1,26.2,> 100,15.8,> 100 µM,4.63,38.9,10.2,73.2,10.1,45.5 µM,16.5,75,9.25,97.5,13,> 100,4.52,47.7,7.32,57.8
CC1=CC(C)(C)Nc2ccc(Cc3ccc4c(c3)C(C)=CC(C)(C)N4)cc21,20.6,> 100,23.6,89.3 µM,13,> 100,18.1,> 100,3.56,16.1 µM,9.59,56.8,5.23,26.3,15.7,64.2,6.95,29,5.1,34.1
C[C@H]1COCCN1c1nc(-c2cnc(N)cc2C(F)F)nc(N2CCOCC2)n1,0.186,15.1,0.235,1.45 µM,0.102,–,0.253,> 21.7,0.148,> 60.8 µM,0.291,> 100,0.0487,> 100,0.177,48.5,0.0794,0.401,0.171,97.8
COc1cc2c3c(n(CCN4CCOCC4)c(=O)c2cc1OC)-c1ccccc1C3=O,33.8,> 100,> 100,> 100 µM,32.9,72.9,> 100,> 100,21.2,> 100 µM,> 100,> 100,37.8,> 100,> 100,> 100,56.8,> 100,35.7,> 100
c1cc(C2CCCCC2)ccc1-c1cnc2nonc2n1,1.47,2.94,0.548,1.87 µM,1.08,3.18,0.466,2.72,0.548,2.56 µM,1.38,> 19.8,0.393,3.21,1.33,4.01,0.393,1.96,0.318,1.52
COc1c(B(O)O)cccc1-c1nc2ccc3[nH]ncc3c2c2c1CCCC2,2.35,6.12,0.133,2.81 µM,0.0171,0.252,2.25,15.2,1.41,10.5 µM,2.39,> 38.8,2.04,13,0.0201,25.1,2.71,10.2,0.658,4.87
O=C(N/N=C/c1cc(Cl)ccc1O)c1ccccc1Nc1ccnc(C(F)(F)F)c1,0.476,17.1,0.721,8.19 µM,0.405,3.87,0.473,9.03,0.689,6.53 µM,0.493,15.5,0.351,30.3,0.54,21.1,0.331,1.75,0.225,0.937
COc1c(-c2ccc3c(c2)OCO3)oc2cc(O)cc(O)c2c1=O,–,> 100,–,> 100 µM,–,86.4,–,> 100,–,83.8 µM,–,> 100,–,75.3,–,> 100,–,> 100,–,> 100
O=C(NNc1ccccc1)c1ccc(Cl)c(Cl)c1,–,> 40.9,–,0.133 µM,–,> 59.5,–,> 100,–,23 µM,–,> 100,–,> 100,–,> 100,–,> 100,–,70.4
CCC[n+]1cc2cc3c(cc2c2c1-c1cc4c(cc1C2)OCO4)OCO3 (tested in a mixture with another compound),0.504,2.14,0.425,2.88 µM,25.8,> 91.8,> 85.5,> 100,–,2.08 µM,0.575,12.2,0.468,6.34,2.39,12.1,0.465,1.7,2.98,14.8
CC(C)(O)CCc1cccc(C(=O)c2cnn(-c3ccc(F)cc3)c2N)c1,> 25,> 25,> 25,> 25 µM,> 25,> 25,> 21.9,> 25,> 25,> 25 µM,> 25,> 25,> 25,> 25,> 25,> 25,> 25,> 25,> 25,> 25
Cc1ccc(NC(=S)C#N)c(C)c1,–,> 100,–,> 100 µM,–,> 100,–,> 100,–,> 100 µM,–,> 100,–,> 100,–,> 100,–,> 100,–,> 71.2
COc1ccc(/C=C\c2cc(OC)c(OC)c(OC)c2)cc1OC(=O)CC(N)C(=O)O (stereo unspecified),0.0951,> 100,0.000427,0.00577 µM and 0.0374 µM,–,–,–,0.000534,0.000424,0.00157 µM and 0.00192 µM,0.00195,–,0.0244,–,0.00402,0.00404,0.000354,> 100,0.000165,–
O=C1c2ccn(CCCNC(CO)(CO)CO)c2C(=O)c2c1c(O)c1ccccc1c2O,2.52,8.2,11.4,25.6 µM,16.4,47.1,10.7,26.7,12.9,46.6 µM,15,36.9,13,33,8.39,25.2,24.6,> 61.3,–,–
O=C(NCCCl)Nc1ccccc1,–,> 100,–,–,–,> 100,–,> 100,–,> 100 µM,–,> 100,–,> 100,–,> 100,–,> 100,–,> 100
CSc1nnc(-c2cc3c([nH]c4ccccc43)c(-c3cccc(O)c3)n2)n1-c1ccc(C)cc1,12.3,> 100,2.81,14.1 µM,–,–,5.64,> 100,2.26,11.1 µM,4.25,45.2,2.5,> 100,3.31,15.8,3.28,21.5,3.02,> 100
O=c1cc(-c2ccccc2)oc2cc(OCCCCCN3CCOCC3)cc(O)c12,–,8.38,> 100,> 100 µM,–,–,72,> 100,31,94.9 µM,68.2,> 100,88.4,> 100,15.6,63.7,95.7,> 100,71,> 100
